Measured values published in patent publication US5521155A, “Amides of teicoplanin compounds” (Gruppo Lepetit S.p.A, priority 1985, dated 1996).
Values after ≈ are worked out from the molar mass of the structure shown.

Columns and labels:
[1] = Isoelectric point (pI) by isoelectrofocusing with bioautography detection; type: physicochemical; conditions: IEF technique, polyacrylamide gel
Source text: The isoelectrofocusing (IEF) technique coupled with bioautography detection has been used for the determination of the pI of representative compounds of the invention using the following materials: AMPHOLINE carrier ampholytes (40% w/v) were purchased from LKB Produketer AB, Bromma, Sweden. Acrylamide, N,N'-methylenbisacrylamide (BIS), N,N,N',N'-tetramethylethylenediamine (TEMED) and ammonium persulfate were from Bio Rad Laboratorie, Richmond, Calif., USA. Glycerol and Antibiotic agar N. 1 (Grove and Randall medium N. 1) were from E. Merck Darmstadt FRG. GEL FIX polyester sheets were purchased from Serva Feinbiochemica Heidelberg. Phenolindo (2,6-dichlorophenol) came from BDH Chemicals Ltd. Poole, England.
IEF was made on gel slab using a LKB MULITPHOR 2117 cell and a Bio-Rad Power Supply Model 1420A. Slabs of 24.5×11.5 cm and 1 mm thickness were prepared on a sheet of GEL FIX. Polyacrylamide gels with a concentration of 8% T and with a cross-linkage of 4% C (30% T stock solution was prepared by dissolving 28.8 g of acrylamide and 1.2 g of bis-acrylamide in 100 ml distilled water), glycerol, 3.5% v/v, 2% AMPHOLINE, 0.05% ammonium persulphate as catalyst and 0.05% TEMED as accelerator. The carrier ampholite composition for 35 ml gelling solution was as follows:
The electrode solutions, as recommended by LKB for the respective pH range, were:
The gel was cooled to 4° C. with the aid of a LKB 2209 refrigerated constant temperature circulator. After prefocusing for 30 min. at 5 W, the samples (20 μl containing 0.2 to 2.5 μg of antibiotic) were loaded into the slot at the cathodic side. Electrofocusing was performed using 10 W constant power and was completed after 3-31/2 hours with a final potential of 1400 V.
The pH values were determined by dividing a portion of the gel into 1 cm sections, and eluting the individual pieces at room temperature with 1 ml of 10 mM KCl prior to pH readings.
The isoelectric point of each antibiotic was determined by interpolation on a curve obtained by plotting pH values versus the distance from the anode.
Polyacrylamide gel was placed on a 3 mm layer of agar medium N. 1 inoculated with 1% of Bacillus subtilis ATCC 6633 spore (0.5 OD at 600 nm). After 10 min the gel was removed and the plate was incubated overnight at 37° C. and examined for inhibition zones. The contrast between the area of lysis and that of bacterial growth was enhanced by use of Phenolindo(2,6-dichlorophenol) 1% w/v (oxidation-reduction indicator).

[2] = test system: E. coli SKF 12140; experiment: In vitro antibacterial activity, standard agar-dilution test (MIC); type: cell-based; conditions: inoculum about 10^4 CFU/ml, 18-24 h at 37° C.
Procedure: (§1) The culture medium ISOSENSITEST BROTH (Oxoid) and the colture medium TODD-[…] BROTH (Difco) are used for growing staphylococci and streptococci, respectively. Broth cultures are diluted so that the final inoculum is about 10^4 colony forming units/ml (CFU/ml).

[3] = test system: Proteus vulgaris X 19H ATCC 881; experiment: as above; type: cell-based; conditions: inoculum about 10^4 CFU/ml, 18-24 h at 37° C.
Procedure: as §1

[4] = test system: Pseudomonas aeruginosa ATCC 10145; experiment: as above; type: cell-based; conditions: inoculum about 10^4 CFU/ml, 18-24 h at 37° C.
Procedure: as §1

[5] = test system: S. aureus Tour; experiment: as above; type: cell-based; conditions: inoculum about 10^4 CFU/ml, 18-24 h at 37° C.
Procedure: as §1

[6] = test system: S. epidermidis ATCC 12228; experiment: as above; type: cell-based; conditions: inoculum about 10^4 CFU/ml, 18-24 h at 37° C.
Procedure: as §1

[7] = test system: S. faecalis ATCC 7080; experiment: as above; type: cell-based; conditions: inoculum about 10^4 CFU/ml, 18-24 h at 37° C.
Procedure: as §1

[8] = test system: S. pneumoniae UC 41; experiment: as above; type: cell-based; conditions: inoculum about 10^4 CFU/ml, 18-24 h at 37° C.
Procedure: as §1

[9] = test system: S. pyogenes C 203; experiment: as above; type: cell-based; conditions: inoculum about 10^4 CFU/ml, 18-24 h at 37° C.
Procedure: as §1

[10] = test system: S. pyogenes L 49; experiment: In vivo test in mice experimentally infected with S. pyogenes L 49 (ED50); conditions: mice infected with S. pyogenes L 49; for ED50, route of administration os.: oral

| Compound | Isoelectric point (pI) [1] | MIC E. coli SKF 12140 [2] [µg/mL] | MIC Proteus vulgaris X 19H ATCC 881 [3] [µg/mL] | MIC Pseudomonas aeruginosa ATCC 10145 [4] [µg/mL] | MIC S. aureus Tour [5] [µg/mL] | MIC S. epidermidis ATCC 12228 [6] [µg/mL] | MIC S. faecalis ATCC 7080 [7] [µg/mL] | MIC S. pneumoniae UC 41 [8] [µg/mL] | MIC S. pyogenes C 203 [9] [µg/mL] | ED50, route of administration os. [10] [mg/kg] | ED50, route of administration s.c [10] [mg/kg] |
| --- | --- | --- | --- | --- | --- | --- | --- | --- | --- | --- | --- |
| CCCCCN(CCCCC)CCCNC(=O)C1NC(=O)C2NC(=O)C(NC(=O)C3NC(=O)C4NC(=O)C(Cc5ccc(c(Cl)c5)Oc5cc3cc(c5O)Oc3ccc(cc3Cl)C2OC2OC(CO)C(O)C(O)C2NC(C)=O)NC(=O)C(N)c2ccc(O)c(c2)Oc2cc(O)cc4c2)c2ccc(O)c(c2)-c2c(OC3OC(CO)C(O)C(O)C3O)cc(O)cc21 (stereo not shown) [Compound 43] | 8.7 |  |  |  |  |  |  |  |  |  |  |
| CCCCCCN(CCCCCC)CCCNC(=O)C1NC(=O)C2NC(=O)C(NC(=O)C3NC(=O)C4NC(=O)C(Cc5ccc(c(Cl)c5)Oc5cc3cc(c5O)Oc3ccc(cc3Cl)C2OC2OC(CO)C(O)C(O)C2NC(C)=O)NC(=O)C(N)c2ccc(O)c(c2)Oc2cc(O)cc4c2)c2ccc(O)c(c2)-c2c(OC3OC(CO)C(O)C(O)C3O)cc(O)cc21 (stereo not shown) [Compound 44] | 8.7 |  |  |  |  |  |  |  |  |  |  |
| COC(=O)CNC(=O)C1NC(=O)C2NC(=O)C(NC(=O)C3NC(=O)C4NC(=O)C(Cc5ccc(c(Cl)c5)Oc5cc3cc(c5O)Oc3ccc(cc3Cl)C2OC2OC(CO)C(O)C(O)C2NC(C)=O)NC(=O)C(N)c2ccc(O)c(c2)Oc2cc(O)cc4c2)c2ccc(O)c(c2)-c2c(OC3OC(CO)C(O)C(O)C3O)cc(O)cc21 (stereo not shown) [Compound 47] | 7.8 |  |  |  |  |  |  |  |  |  |  |
| CC(=O)NC1C(OC2c3ccc(c(Cl)c3)Oc3cc4cc(c3O)Oc3ccc(cc3Cl)CC3NC(=O)C(N)c5ccc(O)c(c5)Oc5cc(O)cc(c5)C(NC3=O)C(=O)NC4C(=O)NC3C(=O)NC2C(=O)NC(C(=O)NCC(=O)O)c2cc(O)cc(O)c2-c2cc3ccc2O)OC(CO)C(O)C1O (stereo not shown) [Compound 56] | 5.8 |  |  |  |  |  |  |  |  |  |  |
| CCCCCCN(CCCCCC)CCCNC(=O)C1NC(=O)C2NC(=O)C(NC(=O)C3NC(=O)C4NC(=O)C(Cc5ccc(c(Cl)c5)Oc5cc3cc(c5O)Oc3ccc(cc3Cl)C2O)NC(=O)C(N)c2ccc(O)c(c2)Oc2cc(O)cc4c2)c2ccc(O)c(c2)-c2c(O)cc(O)cc21 (stereo not shown) [Compound 62] | 8.6 |  |  |  |  |  |  |  |  |  |  |
| NC1C(=O)NC2Cc3ccc(c(Cl)c3)Oc3cc4cc(c3O)Oc3ccc(cc3Cl)C(O)C3NC(=O)C(NC(=O)C4NC(=O)C(NC2=O)c2cc(O)cc(c2)Oc2cc1ccc2O)c1ccc(O)c(c1)-c1c(O)cc(O)cc1C(C(=O)NCC(=O)O)NC3=O (stereo not shown) [Compound 65] | 5.8 |  |  |  |  |  |  |  |  |  |  |
| CCN1CCCC1CNC(=O)C1NC(=O)C2NC(=O)C(NC(=O)C3NC(=O)C4NC(=O)C(Cc5ccc(c(Cl)c5)Oc5cc3cc(c5O)Oc3ccc(cc3Cl)C2O)NC(=O)C(N)c2ccc(O)c(c2)Oc2cc(O)cc4c2)c2ccc(O)c(c2)-c2c(O)cc(O)cc21.Cl.Cl (stereo not shown) [Compound 79] |  | 4 | 32 | 64 | 0.06 | 0.06 | 0.12 | 0.06 | 0.06 | > 300 | 1.25 |
| CN(C)CCN(C)C(=O)C1NC(=O)C2NC(=O)C(NC(=O)C3NC(=O)C4NC(=O)C(Cc5ccc(c(Cl)c5)Oc5cc3cc(c5O)Oc3ccc(cc3Cl)C2O)NC(=O)C(N)c2ccc(O)c(c2)Oc2cc(O)cc4c2)c2ccc(O)c(c2)-c2c(O)cc(O)cc21 (stereo not shown) [Compound 93] |  | 8 (≈ 6.23 µM) | 64 (≈ 49.9 µM) | 64 (≈ 49.9 µM) | 0.06 (≈ 0.0468 µM) | 0.06 (≈ 0.0468 µM) | 0.12 (≈ 0.0935 µM) | 0.06 (≈ 0.0468 µM) | 0.06 (≈ 0.0468 µM) | > 300 | 1.25 |
| CN(C)CCNC(=O)C1NC(=O)C2NC(=O)C(NC(=O)C3NC(=O)C4NC(=O)C(Cc5ccc(c(Cl)c5)Oc5cc3cc(c5O)Oc3ccc(cc3Cl)C2O)NC(=O)C(N)c2ccc(O)c(c2)Oc2cc(O)cc4c2)c2ccc(O)c(c2)-c2c(O)cc(O)cc21.Cl.Cl (stereo not shown) [Compound 94] |  | 4 | 32 | 16 | 0.06 | 0.06 | 0.12 | 0.06 | 0.06 | > 300 | 1.25 |
| CN(C)CCCCNC(=O)C1NC(=O)C2NC(=O)C(NC(=O)C3NC(=O)C4NC(=O)C(Cc5ccc(c(Cl)c5)Oc5cc3cc(c5O)Oc3ccc(cc3Cl)C2O)NC(=O)C(N)c2ccc(O)c(c2)Oc2cc(O)cc4c2)c2ccc(O)c(c2)-c2c(O)cc(O)cc21.O=C(O)C(F)(F)F.O=C(O)C(F)(F)F (stereo not shown) [Compound 97] |  | 8 | 32 | 32 | 0.12 | 0.06 | 0.12 | 0.12 | 0.06 | > 300 | 0.54 |
| NCCCCNC(=O)C1NC(=O)C2NC(=O)C(NC(=O)C3NC(=O)C4NC(=O)C(Cc5ccc(c(Cl)c5)Oc5cc3cc(c5O)Oc3ccc(cc3Cl)C2O)NC(=O)C(N)c2ccc(O)c(c2)Oc2cc(O)cc4c2)c2ccc(O)c(c2)-c2c(O)cc(O)cc21 (stereo not shown) [Compound 99] |  | 8 (≈ 6.3 µM) | 32 (≈ 25.2 µM) | 32 (≈ 25.2 µM) | 0.06 (≈ 0.0473 µM) | 0.06 (≈ 0.0473 µM) | 0.12 (≈ 0.0946 µM) | 0.12 (≈ 0.0946 µM) | 0.06 (≈ 0.0473 µM) |  |  |
| CN(C)CCCCCNC(=O)C1NC(=O)C2NC(=O)C(NC(=O)C3NC(=O)C4NC(=O)C(Cc5ccc(c(Cl)c5)Oc5cc3cc(c5O)Oc3ccc(cc3Cl)C2O)NC(=O)C(N)c2ccc(O)c(c2)Oc2cc(O)cc4c2)c2ccc(O)c(c2)-c2c(O)cc(O)cc21 (stereo not shown) [Compound 100] | 9.0 | 8 (≈ 6.1 µM) | 128 (≈ 97.6 µM) | 64 (≈ 48.8 µM) | 0.06 (≈ 0.0458 µM) | 0.06 (≈ 0.0458 µM) | 0.12 (≈ 0.0915 µM) | 0.12 (≈ 0.0915 µM) | 0.06 (≈ 0.0458 µM) |  |  |
| NCCCCCCNC(=O)C1NC(=O)C2NC(=O)C(NC(=O)C3NC(=O)C4NC(=O)C(Cc5ccc(c(Cl)c5)Oc5cc3cc(c5O)Oc3ccc(cc3Cl)C2O)NC(=O)C(N)c2ccc(O)c(c2)Oc2cc(O)cc4c2)c2ccc(O)c(c2)-c2c(O)cc(O)cc21 (stereo not shown) [Compound 102] |  | 4 (≈ 3.08 µM) | 64 (≈ 49.3 µM) | 64 (≈ 49.3 µM) | 0.06 (≈ 0.0463 µM) | 0.06 (≈ 0.0463 µM) | 0.12 (≈ 0.0925 µM) | 0.06 (≈ 0.0463 µM) | 0.06 (≈ 0.0463 µM) |  |  |
| CCCCOC(=O)C(CCCNC(=N)N)NC(=O)C1NC(=O)C2NC(=O)C(NC(=O)C3NC(=O)C4NC(=O)C(Cc5ccc(c(Cl)c5)Oc5cc3cc(c5O)Oc3ccc(cc3Cl)C2O)NC(=O)C(N)c2ccc(O)c(c2)Oc2cc(O)cc4c2)c2ccc(O)c(c2)-c2c(O)cc(O)cc21 (stereo not shown) [Compound 103] |  | 64 (≈ 45.4 µM) | > 128 | 128 (≈ 90.7 µM) | 2 (≈ 1.42 µM) | 0.5 (≈ 0.354 µM) | 1 (≈ 0.709 µM) | 0.5 (≈ 0.354 µM) | 0.5 (≈ 0.354 µM) |  |  |
